Assay results as given in ChEMBL document CHEMBL5500342, “Rational molecular design converting fascaplysin derivatives to potent broad-spectrum inhibitors against bacterial pathogens via targeting FtsZ” (Eur J Med Chem, 2024).
Values after ≈ are worked out from the molar mass of the structure shown.

What was measured:
Staphylococcus aureus [1] = test: Antibacterial activity against methicillin-resistant Staphylococcus aureus ATCC43300 assessed as inhibition of bacterial growth incubated for 18 hrs by CLSI protocol based microbroth dilution method; type: functional
Streptococcus pneumoniae = test: Antibacterial activity against Streptococcus pneumoniae ATCC49619 assessed as inhibition of bacterial growth incubated for 18 hrs by CLSI protocol based microbroth dilution method; type: functional
Bacillus subtilis = test: Antibacterial activity against Bacillus subtilis BNCC336690 assessed as inhibition of bacterial growth incubated for 18 hrs by CLSI protocol based microbroth dilution method; type: functional
Escherichia coli [2] = test: Antibacterial activity against penicillin-susceptible Escherichia coli ATCC25922 assessed as inhibition of bacterial growth incubated for 18 hrs by CLSI protocol based microbroth dilution method; type: functional
Salmonella enteritidis = test: Antibacterial activity against Salmonella enteritidis BNCC281091 assessed as inhibition of bacterial growth incubated for 18 hrs by CLSI protocol based microbroth dilution method; type: functional, Salmonella enterica subsp. enterica serovar Enteritidis; conditions: Salmonella enterica
Pseudomonas aeruginosa = test: Antibacterial activity against Pseudomonas aeruginosa BNCC337940 assessed as inhibition of bacterial growth incubated for 18 hrs by CLSI protocol based microbroth dilution method; type: functional
Staphylococcus aureus [3] = test: Antibacterial activity against methicillin-resistant Staphylococcus aureus ATCC43300; type: functional
Escherichia coli [4] = test: Antibacterial activity against penicillin-susceptible Escherichia coli ATCC25922; type: functional
Staphylococcus aureus [5] = test: Bactericidal activity against methicillin-resistant Staphylococcus aureus ATCC43300 incubated for 24 hrs by CLSI protocol based microbroth dilution method; type: functional
Escherichia coli [6] = test: Bactericidal activity against penicillin-susceptible Escherichia coli ATCC25922 incubated for 24 hrs by CLSI protocol based microbroth dilution method; type: functional
Staphylococcus aureus [7] = test: Selectivity ratio of MBC for bactericidal activity against methicillin-resistant Staphylococcus aureus ATCC43300 to MIC for antibacterial activity against methicillin-resistant Staphylococcus aureus ATCC43300; type: functional
[8] = Selectivity ratio of MBC for bactericidal activity against penicillin-susceptible Escherichia coli ATCC25922 to MIC for antibacterial activity against penicillin-susceptible Escherichia coli ATCC25922; type: functional

Structure (SMILES) | MIC (Staphylococcus aureus [1]) [µg/mL] | MIC (Streptococcus pneumoniae) [µg/mL] | MIC (Bacillus subtilis) [µg/mL] | MIC (Escherichia coli [2]) [µg/mL] | MIC (Salmonella enteritidis) [µg/mL] | MIC (Pseudomonas aeruginosa) [µg/mL] | MIC (Staphylococcus aureus [3]) [µg/mL] | MIC (Escherichia coli [4]) [µg/mL] | MBC (Staphylococcus aureus [5]) [µg/mL] | MBC (Escherichia coli [6]) [µg/mL] | Selectivity ratio (Staphylococcus aureus [7]) | Selectivity ratio [8]
CCCc1ccc(-c2ccc3[nH]c4c5[n+](ccc4c3c2)-c2ccccc2C5=O)cc1.[Cl-] | 1.56 | 0.195 | 0.195 | > 200 | > 200 | > 200 |  |  |  |  |  | 
COc1cccc(-c2ccc3[nH]c4c5[n+](ccc4c3c2)-c2ccccc2C5=O)c1.[Cl-] |  | 0.39 | 0.195 |  | > 200 | > 200 | 0.39 | 12.5 |  |  |  | 
O=C1c2ccccc2-[n+]2ccc3c([nH]c4ccc(-c5cccc(Cl)c5)cc43)c21.[Cl-] | 0.39 | 0.195 | 0.195 | 25 | > 200 | > 200 |  |  |  |  |  | 
CCc1ccc(-c2ccc3[nH]c4c5[n+](ccc4c3c2)-c2ccccc2C5=O)cc1.[Cl-] | 1.56 | 0.195 | 0.195 | > 200 | > 200 | > 200 |  |  |  |  |  | 
Cc1ccc(-c2ccc3[nH]c4c5[n+](ccc4c3c2)-c2ccccc2C5=O)cc1.[Cl-] |  | 0.195 | 0.195 |  | > 200 | > 200 | 0.39 | 12.5 |  |  |  | 
O=C1c2ccccc2-[n+]2ccc3c([nH]c4ccc(-c5ccc(C(F)(F)F)cc5)cc43)c21.[Cl-] |  | 1.56 | 0.195 |  | > 200 | > 200 | 0.39 | 1.56 |  |  |  | 
O=C1c2ccccc2-[n+]2ccc3c([nH]c4ccc(-c5ccc(F)cc5)cc43)c21.[Cl-] |  | 0.195 | 0.195 |  | > 200 | > 200 | 1.56 | 6.25 |  |  |  | 
COc1ccc(-c2ccc3[nH]c4c5[n+](ccc4c3c2)-c2ccccc2C5=O)cc1.[Cl-] |  | 0.195 | 0.195 |  | > 200 | > 200 | 0.78 | 25 |  |  |  | 
O=C1c2ccccc2-[n+]2ccc3c([nH]c4ccc(-c5cc(F)cc(F)c5)cc43)c21.[Cl-] | 3.12 | 0.195 | 0.195 | 12.5 | > 200 | > 200 |  |  |  |  |  | 
O=C1c2ccccc2-[n+]2ccc3c([nH]c4ccc(-c5ccccc5)cc43)c21.[Cl-] |  | 0.195 | 0.195 |  | > 200 | 200 | 0.78 | 3.12 |  |  |  | 
CN[C@H](CC(C)C)C(=O)N[C@H]1C(=O)N[C@@H](CC(N)=O)C(=O)N[C@H]2C(=O)N[C@H]3C(=O)N[C@H](C(=O)N[C@H](C(=O)O)c4cc(O)cc(O)c4-c4cc3ccc4O)[C@H](O)c3ccc(c(Cl)c3)Oc3cc2cc(c3O[C@@H]2O[C@H](CO)[C@@H](O)[C@H](O)[C@H]2O[C@H]2C[C@](C)(N)[C@H](O)[C@H](C)O2)Oc2ccc(cc2Cl)[C@H]1O [VANCOMYCIN] |  | 1.56 (≈ 1.08 µM) | 0.39 (≈ 0.269 µM) |  |  |  |  |  | 1 (≈ 0.69 µM) | 3.12 (≈ 2.16 µM) |  | 
O=C1c2ccccc2-[n+]2ccc3c([nH]c4ccc(-c5ccc(Cl)cc5)cc43)c21.[Cl-] | 1.56 | 0.39 | 0.195 | > 200 | > 200 | > 200 |  |  |  |  |  | 
O=C1c2ccccc2-[n+]2ccc3c([nH]c4ccc(-c5ccc(F)cc5F)cc43)c21.[Cl-] |  | 0.195 | 0.195 |  | > 200 | > 200 | 0.195 | 1.56 |  |  |  | 
Cc1cccc(-c2ccc3[nH]c4c5[n+](ccc4c3c2)-c2ccccc2C5=O)c1.[Cl-] | 0.39 | 0.195 | 0.195 | > 200 | > 200 | > 200 |  |  |  |  |  | 
Cc1ccc(-c2ccc3[nH]c4c5[n+](ccc4c3c2)-c2ccccc2C5=O)cc1C.[Cl-] | 6.25 | 0.78 | 0.195 | > 200 | > 200 | > 200 |  |  |  |  |  | 
CCCCc1ccc(-c2ccc3[nH]c4c5[n+](ccc4c3c2)-c2ccccc2C5=O)cc1.[Cl-] | 6.25 | 0.78 | 1.56 | > 200 | > 200 | > 200 |  |  |  |  |  | 
O=C1c2ccccc2-[n+]2ccc3c([nH]c4ccccc43)c21 [FASCAPLYSIN] | 0.78 |  |  | 12.5 |  |  |  |  | 1.56 | 25 | 2 | 2
